Results from patent publication US20190105367A1, “ANTIMICROBIAL 4-OXOQUINOLIZINES” (Emergent Product Development Gaithersburg Inc., priority 2011, published 2019).
Converted amounts (≈) assume the structure as drawn. Like-named read-outs stand apart in the source and are kept apart here.

Key:
[1] = tested on: strains of A. baumannii and one strain of Acinetobacter sp.; assay: MIC with sub-inhibitory concentrations (0.25x MIC) of polymyxin B, panel of Acinetobacter strains (Example 4); assay type: cell-based
[2] = tested on: A. baumannii ATCC 19606; assay: MIC without and with sub-inhibitory polymyxin B (Example 4); assay type: cell-based, Acinetobacter baumannii; conditions: for MIC without PB/MIC + PB: A. baumannii ATCC 19606; for MIC: Acinetobacter baumannii
[3] = tested on: A. baumannii ATCC 19606; assay: Preliminary MBC without and with sub-inhibitory polymyxin B (Example 4); assay type: cell-based, Acinetobacter baumannii; conditions: Acinetobacter baumannii
[4] = tested on: A. baumannii J2; assay: MIC without and with sub-inhibitory polymyxin B (Example 4); assay type: cell-based, Acinetobacter baumannii; conditions: for MIC without PB/MIC + PB: A. baumannii J2
[5] = tested on: Acinetobacter sp. (H064200250); assay: as above; assay type: cell-based
[6] = tested on: A. baumannii A329; assay: as above; assay type: cell-based, Acinetobacter baumannii; conditions: +0.06 μg/ml PB, 2nd experiment
[7] = tested on: A. baumannii A329; assay: Preliminary MBC without and with sub-inhibitory polymyxin B (Example 4); assay type: cell-based, Acinetobacter baumannii; conditions: Acinetobacter baumannii, A329, A. baumannii A329, +0.06 μg/ml PB, 2nd experiment, read-out: MBC
[8] = tested on: A. baumannii A387; assay: MIC without and with sub-inhibitory polymyxin B (Example 4); assay type: cell-based, Acinetobacter baumannii; conditions: for MIC without PB/MIC + PB: A. baumannii A387; for MIC: Acinetobacter baumannii
[9] = tested on: A. baumannii A387; assay: Preliminary MBC without and with sub-inhibitory polymyxin B (Example 4); assay type: cell-based, Acinetobacter baumannii; conditions: Acinetobacter baumannii
[10] = tested on: A. baumannii A390; assay: MIC without and with sub-inhibitory polymyxin B (Example 4); assay type: cell-based, Acinetobacter baumannii; conditions: +0.06 μg/ml PB, 2nd experiment
[11] = tested on: A. baumannii A14; assay: Preliminary MBC without and with sub-inhibitory polymyxin B (Example 4); assay type: cell-based, Acinetobacter baumannii; conditions: Acinetobacter baumannii, 2nd experiment, read-out: MBC
Method in brief: (§1)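 After plating, cultures are held at 37° C for 18-20 hours; the endpoint is then scored by comparing colony growth against the positive control, with MBC defined as the lowest concentration showing roughly 90% reduction.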

[12] = tested on: A. baumannii A390; assay: as above; assay type: cell-based, Acinetobacter baumannii; conditions: Acinetobacter baumannii, A390, A. baumannii A390, +0.06 μg/ml PB, 2nd experiment, read-out: MBC
Method in brief: as §1

[13] = tested on: A. baumannii A473; assay: as above; assay type: cell-based, Acinetobacter baumannii; conditions: Acinetobacter baumannii, A473, A. baumannii A473, +0.06 μg/ml PB, 2nd experiment, read-out: MBC
Method in brief: as §1

[14] = tested on: A. baumannii NCTC 13301; assay: as above; assay type: cell-based, Acinetobacter baumannii; conditions: Acinetobacter baumannii
Method in brief: as §1

[15] = tested on: A. baumannii A401; assay: MIC without and with sub-inhibitory polymyxin B (Example 4); assay type: cell-based, Acinetobacter baumannii; conditions: for MIC: Acinetobacter baumannii
[16] = tested on: A. baumannii A401; assay: Preliminary MBC without and with sub-inhibitory polymyxin B (Example 4); assay type: cell-based, Acinetobacter baumannii; conditions: Acinetobacter baumannii
[17] = tested on: A. baumannii A472; assay: MIC without and with sub-inhibitory polymyxin B (Example 4); assay type: cell-based, Acinetobacter baumannii; conditions: 1st experiment
[18] = tested on: A. baumannii A472; assay: Preliminary MBC without and with sub-inhibitory polymyxin B (Example 4); assay type: cell-based, Acinetobacter baumannii; conditions: Acinetobacter baumannii, A472, read-out: MBC +[…] PB, A. baumannii A472; +[…] polymyxin B; preliminary MBC; 1st experiment
[19] = tested on: A. baumannii A473; assay: MIC without and with sub-inhibitory polymyxin B (Example 4); assay type: cell-based, Acinetobacter baumannii; conditions: +0.06 μg/ml PB, 2nd experiment
[20] = tested on: A. baumannii A489; assay: as above; assay type: cell-based, Acinetobacter baumannii; conditions: for MIC without PB/MIC + PB: A. baumannii A489; for MIC: Acinetobacter baumannii
[21] = tested on: A. baumannii A489; assay: Preliminary MBC without and with sub-inhibitory polymyxin B (Example 4); assay type: cell-based, Acinetobacter baumannii; conditions: Acinetobacter baumannii, preliminary MBC
[22] = tested on: A. baumannii NCTC 13301; assay: MIC without and with sub-inhibitory polymyxin B (Example 4); assay type: cell-based, Acinetobacter baumannii
[23] = tested on: A. baumannii NCTC 13301; assay: as above; assay type: cell-based, Acinetobacter baumannii; conditions: A. baumannii NCTC 13301; +[…] PB; 2nd experiment
[24] = tested on: A. baumannii A14; assay: as above; assay type: cell-based, Acinetobacter baumannii; conditions: 2nd experiment; for MIC: Acinetobacter baumannii, A14, A. baumannii A14, read-out: MIC
[25] = ratio, PB 0.06 μg/ml, 1st experiment

In the case of `Cc1c(-c2ccc(N)c(F)c2)ccn2c(=O)c(C(=O)O)cc(C3CC3)c12` [Compound 1, 8-(3-fluoro-4-amino-phenyl)-1-cyclopropyl-9-methyl-4-oxo-quinolizine-3-carboxylic acid], the “MIC range with PB (0.25x MIC) Oct. 1, 2008 n = 8” value ([1]; 1st experiment, […] polymyxin B, ATCC 19606, A329, A390 and A473 not taken) is reported as at most 0.03 to 0.06 µg/mL, the “MIC range with PB (0.25x MIC) Oct. 14, 2008 n = 11” value ([1]; 2nd experiment, 0.06 μg/ml polymyxin B, all strains except the ATCC strain) is reported as at most 0.03 to 2 µg/mL and the “MIC without PB/MIC + PB” value ([2]; +0.06 μg/ml PB, 2nd experiment) is reported as at least 8. The “MIC without PB/MIC + PB” value [2, 25] was at least 8, the MIC ([2]; ATCC19606, A. baumannii ATCC 19606, +0.06 μg/ml PB, 2nd experiment, read-out: MIC) was at most 0.03 µg/mL and the MIC ([2]; ATCC19606, read-out: MIC +0.06 μg/ml PB, A. baumannii ATCC 19606, +0.06 μg/ml polymyxin B, 1st experiment) was at most 0.03 µg/mL. The MBC ([3]; ATCC19606, A. baumannii ATCC 19606, +0.06 μg/ml PB, 2nd experiment, read-out: MBC) was at most 0.03 µg/mL, the MBC ([3]; ATCC19606, read-out: MBC +0.06 μg/ml PB, A. baumannii ATCC 19606, +0.06 μg/ml polymyxin B, 1st experiment) was at most 0.03 µg/mL and the “MIC without PB/MIC + PB” value ([4]; +[…] PB, 2nd experiment) was at least 512. For the same compound, the “MIC without PB/MIC + PB” value ([4]; ratio, PB […], 1st experiment) was at least 256, the MIC ([4]; Acinetobacter baumannii, J2, read-out: MIC +[…] PB, A. baumannii J2, +[…] polymyxin B, 1st experiment) was at most 0.03 µg/mL and the “MIC without PB/MIC + PB” value ([5]; Acinetobacter spp. H064200250 (OXA51), +[…] PB, 2nd experiment) was at least 512. The “MIC without PB/MIC + PB” value ([5]; Acinetobacter spp. H064200250, ratio, PB […], 1st experiment) was at least 256, the MIC ([5]; Acinetobacter, read-out: MIC +[…] PB, Acinetobacter spp. H064200250, +[…] polymyxin B, 1st experiment) was at most 0.03 µg/mL and the “MIC without PB/MIC + PB” value ([6]; A. baumannii A329) was 8. The MIC ([6]; Acinetobacter baumannii, A329, A. baumannii A329, read-out: MIC) was 2 µg/mL (≈ 5.68 µM), the MBC [7] was 2 µg/mL (≈ 5.68 µM) and the “MIC without PB/MIC + PB” value ([8]; +0.06 μg/ml PB, 2nd experiment) was at least 128. For the same compound, the “MIC without PB/MIC + PB” value [8, 25] was at least 32, the MIC ([8]; A387, A. baumannii A387, +0.06 μg/ml PB, 2nd experiment, read-out: MIC) was at most 0.03 µg/mL and the MIC ([8]; A387, read-out: MIC +0.06 μg/ml PB, A. baumannii A387, +0.06 μg/ml polymyxin B, 1st experiment) was at most 0.03 µg/mL. For the same compound, the MBC ([9]; A387, A. baumannii A387, +0.06 μg/ml PB, 2nd experiment, read-out: MBC) was at most 0.03 µg/mL, the MBC ([9]; A387, read-out: MBC +0.06 μg/ml PB, A. baumannii A387, +0.06 μg/ml polymyxin B, 1st experiment) was at most 0.03 µg/mL and the “MIC without PB/MIC + PB” value ([10]; A. baumannii A390) was at least 512. The MIC ([10]; Acinetobacter baumannii, A390, A. baumannii A390, read-out: MIC) was at most 0.03 µg/mL, the MBC ([11]; A14, A. baumannii A14, +0.06 μg/ml PB) was 0.06 µg/mL (≈ 0.17 µM) and the MBC ([11]; A14, A. baumannii A14, without PB) was 32 µg/mL (≈ 90.8 µM). For the same compound, the MBC [12] was at most 0.03 µg/mL, the MBC [13] was 1 µg/mL (≈ 2.84 µM) and the MBC ([14]; NCTC13301) was at most 0.03 µg/mL. For the same compound, the MBC ([14]; NCTC13301, read-out: MBC +[…] PB) was 0.06 µg/mL (≈ 0.17 µM), the “MIC without PB/MIC + PB” value ([15]; A baumannii A 401, ratio, PB 0.06 μg/ml, 1st experiment) was at least 128 and the MIC ([15]; A401, A baumannii A 401, +0.06 μg/ml PB, 2nd experiment, read-out: MIC) was at most 0.03 µg/mL. The MIC ([15]; A401, read-out: MIC +0.06 μg/ml PB, A baumannii A 401, +0.06 μg/ml polymyxin B, 1st experiment) was at most 0.03 µg/mL, the MBC ([16]; A401, A baumannii A 401, +0.06 μg/ml PB, 2nd experiment, read-out: MBC) was at most 0.03 µg/mL and the MBC ([16]; A401, read-out: MBC +0.06 μg/ml PB, A baumannii A 401, +0.06 μg/ml polymyxin B, 1st experiment) was at most 0.03 µg/mL. For the same compound, the “MIC without PB/MIC + PB” value ([17]; A. baumannii A472, ratio, PB […]) was at least 256, the MIC ([17]; Acinetobacter baumannii, A472, read-out: MIC +[…] PB, A. baumannii A472, +[…] polymyxin B) was at most 0.03 µg/mL and the MBC [18] was at most 0.03 µg/mL. The “MIC without PB/MIC + PB” value ([19]; A. baumannii A473) was 8, the MIC ([19]; Acinetobacter baumannii, A473, A. baumannii A473, read-out: MIC) was 1 µg/mL (≈ 2.84 µM) and the “MIC without PB/MIC + PB” value ([20]; +[…] PB, 2nd experiment) was at least 512. The “MIC without PB/MIC + PB” value ([20]; ratio, PB […], 1st experiment) was at least 128, the MIC ([20]; A489, A. baumannii A489, +[…] PB, 2nd experiment, read-out: MIC) was at most 0.03 µg/mL and the MIC ([20]; A489, read-out: MIC +[…] PB, A. baumannii A489, +[…] polymyxin B, 1st experiment) was at most 0.03 µg/mL. The MBC ([21]; A489, A. baumannii A489, +[…] PB, 2nd experiment, read-out: MBC) was at most 0.03 µg/mL, the MBC ([21]; A489, read-out: MBC +[…] PB, A. baumannii A489, +[…] polymyxin B, 1st experiment) was at most 0.03 µg/mL and the “MIC without PB/MIC + PB” value ([22]; A. baumannii NCTC 13301, ratio, PB […], 1st experiment) was at least 1024. The MIC ([22]; Acinetobacter baumannii, NCTC13301, read-out: MIC +[…] PB) was at most 0.03 µg/mL, the “MIC without PB/MIC + PB” value [23] was at least 1024 and the “MIC without PB/MIC + PB” value ([24]; A. baumannii A14, +0.06 μg/ml PB) was 512. For the same compound, the MIC ([24]; +0.06 μg/ml PB) was 0.06 µg/mL (≈ 0.17 µM) and the MIC ([24]; without PB) was 32 µg/mL (≈ 90.8 µM).
